Earlier results, collected in publication PMC7395068, “The evolution of strategies to minimise the risk of human drug-induced liver injury (DILI) in drug discovery and development” (Archives of Toxicology, 2020).
Read-outs that look alike come from different tables or passages of the source.

How the values were obtained:
[1] = test system: THLE or HepG2 cells, isolated mitochondria, BSEP; conditions: cited from earlier work
[2] = test system: isolated mouse liver mitochondria; conditions: cited from earlier work
[3] = cited from earlier work
[4] = cited from earlier work; remark: listed apart in the source
HepG2 cells [5] = conditions: cited from earlier work
HepG2 cells [6] = conditions: cited from earlier work; remark: listed apart in the source
human hepatocytes = conditions: cited from earlier work
[7] = test system: primary human hepatocytes, NIH3T3 fibroblasts, BSEP, CYP3A4; conditions: In vitro Assay; ref Schadt 2015; cited from earlier work
[8] = In vitro Assay, ref Porceddu 2012
[9] = In vitro Assay, ref Persson 2013

Structure (SMILES): COc1cc2ncnc(Nc3ccc(F)c(Cl)c3)c2cc1OCCCN1CCOCC1 [gefitinib]
- Partition Hybrid HRM Score ([1]; In vitro Assay, ref Aleo 2019): +VE
- Ro2 Hybrid HRM Score ([1]; In vitro Assay, ref Aleo 2019): +VE
- in vitro data EC2<=1x Cmax [2, 8]: +VE

Structure (SMILES): Cc1ccc(NC(=O)c2ccc(CN3CCN(C)CC3)cc2)cc1Nc1nccc(-c2cccnc2)n1 [imatinib]
- In vivo DILI ([3]; in vivo): +VE
- DILI +VE (5-8), DILI -VE (-4) ([4]; in vivo): +VE
- DILI severity category ([4]; in vivo): vMost-DILI-Concern
- in vitro data EC2<=1x Cmax [2, 8]: +VE

Structure (SMILES): Nc1ccn([C@@H]2CS[C@H](CO)O2)c(=O)n1 [lamivudine]
- Partition Hybrid HRM Score [1]: -VE
- DILI +VE (5-8), DILI -VE (-4) ([4]; in vivo): +VE
- DILI severity category ([4]; in vivo): vLess-DILI-Concern
- in vitro data EC2<=1x Cmax [2, 8]: +VE

Structure (SMILES): CCN(CC)CCNC(=O)c1cc(Cl)c(N)cc1OC [metoclopramide]
- Structural based (HCI) (HepG2 cells [5]): -VE
- DILI +VE (5-8), DILI -VE (-4) ([4]; in vivo): +VE
- DILI severity category ([4]; in vivo): vLess-DILI-Concern

Structure (SMILES): Cc1c(O)cccc1C(=O)N[C@@H](CSc1ccccc1)[C@H](O)CN1C[C@H]2CCCC[C@H]2C[C@H]1C(=O)NC(C)(C)C [nelfinavir]
- In vivo DILI ([3]; ref Porceddu 2012): +VE
- DILI +VE (5-8), DILI -VE (-4) ([4]; ref Chen 2016): +VE
- DILI severity category ([4]; ref Chen 2016): vLess-DILI-Concern
- in vitro data EC2<=1x Cmax [2, 8]: +VE
- in vitro data EC20<=2uM [2, 8]: +VE

Structure (SMILES): CN1CCC[C@H]1c1cccnc1 [nicotine]
- In vivo DILI ([3]; in vivo): -VE
- in vitro data EC20<=2uM [2]: -VE
- Cluser analysis (HepG2 cells [6]): -VE

Structure (SMILES): CCCN1C[C@H](CSC)C[C@@H]2c3cccc4[nH]cc(c34)C[C@H]21 [pergolide]
- In vivo DILI ([3]; ref Persson 2013): -VE
- DILI +VE (5-8), DILI -VE (-4) ([4]; ref Chen 2016): -VE
- DILI severity category ([4]; ref Chen 2016): Ambiguous DILI-concern
- Cluser analysis (HepG2 cells [6]; [9]): -VE
- Structural based (HCI) (HepG2 cells [6]; [9]): -VE

Structure (SMILES): CCC1(c2ccccc2)C(=O)NCNC1=O [primidone]
- Structural based (HCI) (HepG2 cells [5]): +VE
- DILI +VE (5-8), DILI -VE (-4) ([4]; in vivo): -VE

Structure (SMILES): CCCc1cc(=O)[nH]c(=S)[nH]1 [propylthiouracil]
- DILI +VE (5-8), DILI -VE (-4) ([4]; in vivo): +VE
- DILI severity category ([4]; in vivo): vMost-DILI-Concern
- in vitro data EC2<=1x Cmax [2, 8]: +VE
- Cluser analysis (HepG2 cells [6]): -VE
- Structural based (HCI) (HepG2 cells [6]): -VE

Structure (SMILES): CCCc1cc(=O)[nH]c(=S)[nH]1 [propythiouracil]
- Structural based (HCI), In vitro Assay (HepG2 cells [5]; HepG2 HCI, ref O'Brien 2006): +VE

Structure (SMILES): CC(C)c1nc(CN(C)C(=O)N[C@H](C(=O)N[C@@H](Cc2ccccc2)C[C@H](O)[C@H](Cc2ccccc2)NC(=O)OCc2cncs2)C(C)C)cs1 [ritonavir]
- In vivo DILI ([3]; ref Aleo 2019): +VE
- In vivo DILI ([3]; ref Porceddu 2012): +VE
- In vivo DILI ([3]; ref Schadt 2015): +VE
- Partition Hybrid HRM Score ([1]; In vitro Assay, ref Aleo 2019): +VE
- Ro2 Hybrid HRM Score ([1]; In vitro Assay, ref Aleo 2019): +VE
- DILI +VE (5-8), DILI -VE (-4) ([4]; ref Chen 2016): +VE
- DILI severity category ([4]; ref Chen 2016): vMost-DILI-Concern
- in vitro data EC2<=1x Cmax [2, 8]: +VE
- in vitro data EC20<=2uM [2, 8]: +VE

Structure (SMILES): CC(C)(C)NC(=O)[C@@H]1C[C@@H]2CCCC[C@@H]2CN1C[C@@H](O)[C@H](Cc1ccccc1)NC(=O)[C@H](CC(N)=O)NC(=O)c1ccc2ccccc2n1 [saquinavir]
- In vivo DILI ([3]; ref Porceddu 2012): +VE
- In vivo DILI ([3]; ref Schadt 2015): -VE
- DILI +VE (5-8), DILI -VE (-4) ([4]; ref Chen 2016): +VE
- DILI severity category ([4]; ref Chen 2016): vLess-DILI-Concern
- in vitro data EC2<=1x Cmax [2, 8]: +VE
- in vitro data EC20<=2uM [2, 8]: +VE

Structure (SMILES): CNC(=O)c1cc(Oc2ccc(NC(=O)Nc3ccc(Cl)c(C(F)(F)F)c3)cc2)ccn1 [sorafenib]
- In vivo DILI ([3]; ref Aleo 2019): +VE
- In vivo DILI ([3]; ref Porceddu 2012): +VE
- Partition Hybrid HRM Score ([1]; In vitro Assay, ref Aleo 2019): +VE
- Ro2 Hybrid HRM Score ([1]; In vitro Assay, ref Aleo 2019): +VE
- DILI +VE (5-8), DILI -VE (-4) ([4]; ref Chen 2016): +VE
- DILI severity category ([4]; ref Chen 2016): vMost-DILI-Concern
- in vitro data EC2<=1x Cmax [2, 8]: +VE
- in vitro data EC20<=2uM [2, 8]: -VE

Structure (SMILES): CNS(=O)(=O)Cc1ccc2[nH]cc(CCN(C)C)c2c1 [sumatriptan]
- In vivo DILI ([3]; ref Porceddu 2012): -VE
- In vivo DILI ([3]; ref Xu 2008): -VE
- DILI +VE (5-8), DILI -VE (-4) ([4]; ref Chen 2016): -VE
- DILI severity category ([4]; ref Chen 2016): Ambiguous DILI-concern
- in vitro data EC2<=1x Cmax [2, 8]: -VE
- in vitro data EC20<=2uM [2, 8]: -VE
- Structural based (HCI) (human hepatocytes; In vitro Assay, ref Xu 2008): -VE

Structure (SMILES): COc1cccc(C2(O)CCCCC2CN(C)C)c1 (centres unmarked) [tramadol]
- In vivo DILI ([3]; ref Porceddu 2012): +VE
- DILI +VE (5-8), DILI -VE (-4) ([4]; ref Chen 2016): -VE
- DILI severity category ([4]; ref Chen 2016): Ambiguous DILI-concern
- in vitro data EC2<=1x Cmax [2, 8]: -VE
- in vitro data EC20<=2uM [2, 8]: -VE

Structure (SMILES): CN[C@H](CC(C)C)C(=O)N[C@H]1C(=O)N[C@@H](CC(N)=O)C(=O)N[C@H]2C(=O)N[C@H]3C(=O)N[C@H](C(=O)N[C@H](C(=O)O)c4cc(O)cc(O)c4-c4cc3ccc4O)[C@H](O)c3ccc(c(Cl)c3)Oc3cc2cc(c3O[C@@H]2O[C@H](CO)[C@@H](O)[C@H](O)[C@H]2O[C@H]2C[C@](C)(N)[C@H](O)[C@H](C)O2)Oc2ccc(cc2Cl)[C@H]1O [vancomycin]
- Partition Hybrid HRM Score [1]: +VE
- Ro2 Hybrid HRM Score [1]: -VE
- DILI +VE (5-8), DILI -VE (-4) ([4]; in vivo): +VE
- DILI severity category ([4]; in vivo): vLess-DILI-Concern
- Cluser analysis (HepG2 cells [6]): -VE
- Structural based (HCI) (human hepatocytes): +VE

Structure (SMILES): CC[C@]1(O)C[C@@H]2CN(CCc3c([nH]c4ccccc34)[C@@](C(=O)OC)(c3cc4c(cc3OC)N(C)[C@H]3[C@@](O)(C(=O)OC)[C@H](OC(C)=O)[C@]5(CC)C=CCN6CC[C@]43[C@@H]65)C2)C1 [vinblastine]
- Cellular toxicity (3T3 cells) [7]: -VE
- GSH adduct HML [7]: -VE
- Hepatocyte cellular toxicity [7]: +VE
- MitoTox 3T3 [7]: +VE
- TDI CYP3A4 [7]: +VE
- hBSEP inhibition [7]: +VE
- in vitro data EC2<=1x Cmax [2, 8]: -VE
